The source of these data is patent US20130158075A1, “HETEROCYCLIC COMPOUNDS AS DGAT1 INHIBITORS” (PIRAMAL ENTERPRISES LIMITED, priority 2010, published 2013).

Where a name gives a salt, the structure may show the parent alone.

The first test deals with T1, hDGAT1 (Homo sapiens, UniProt O75907).
T1 construct: made in house; host or cells: Sf9 insect cells (baculovirus); microsomal fraction
T1 sequence (O75907 1-488): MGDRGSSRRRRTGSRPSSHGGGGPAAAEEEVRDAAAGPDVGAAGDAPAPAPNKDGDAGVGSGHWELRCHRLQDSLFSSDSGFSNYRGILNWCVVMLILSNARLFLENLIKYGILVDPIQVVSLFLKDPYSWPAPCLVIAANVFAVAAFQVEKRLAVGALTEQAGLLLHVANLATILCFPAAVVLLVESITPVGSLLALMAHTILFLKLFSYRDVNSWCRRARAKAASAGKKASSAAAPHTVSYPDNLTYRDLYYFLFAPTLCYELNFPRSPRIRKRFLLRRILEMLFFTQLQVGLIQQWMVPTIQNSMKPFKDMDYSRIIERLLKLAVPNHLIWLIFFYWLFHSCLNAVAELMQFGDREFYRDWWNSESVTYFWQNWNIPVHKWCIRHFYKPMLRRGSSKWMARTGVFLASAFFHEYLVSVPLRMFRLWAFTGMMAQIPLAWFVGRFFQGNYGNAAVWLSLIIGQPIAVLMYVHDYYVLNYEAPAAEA
Description: In-vitro DGAT1 assay with hDGAT1 microsomes from Sf9 cells (14C oleoyl CoA, scintillation counting). Particulars: at 1 μM. It counts as biochemical. The method in brief:
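Radiolabelled triglyceride formation was measured: heptane extracts were scintillation-counted after a 10-min, 37 °C reaction stopped with alkaline ethanol. Enzyme was human DGAT1 in baculovirus-infected Sf9 microsomal membranes; substrates were 14C oleoyl-CoA plus dioleoylglycerol. Runs were duplicated, and inhibition (%) was related to nM compound concentration.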
Regarding `CC(C)(CCc1ncc(-c2ccc(NC(=O)Nc3cc(F)c(F)cc3F)cc2)s1)C(=O)[O-].[Na+]` [Example 237A, Sodium salt of 2,2-dimethyl-4-(5-(4-(3-(2,4,5-trifluorophenyl)ureido)phenyl)thiazol-2-yl)butanoate], the “Percentage inhibition of hDGAT1” value is “++ (>50 % Inhibition)”.

With “3-(5-(4-(3-(2-Chlorophenyl)ureido)phenyl)thiazol-2-yl)-2,2-diethylpropanoic acid [Example 30]”, the “Percentage inhibition of hDGAT1” value was “++ (>50 % Inhibition)”.

`CC(C)(CCc1ncc(-c2ccc(NC(=O)Nc3cc(F)cc(F)c3)cc2)s1)C(=O)[O-].[Na+]` [Example 235A, Sodium salt of 4-(5-(4-(3-(3,5-difluorophenyl)ureido)phenyl)thiazol-2-yl)-2,2-dimethylbutanoate]: the “Percentage inhibition of hDGAT1” value is recorded as “++ (>50 % Inhibition)”.

Consider `Cc1ccc(NC(=O)Nc2ccc(-c3noc([C@H]4CC[C@H](C(=O)O)CC4)n3)cc2)cc1` [Example 223, (1r,4r)-4-(3-(4-(3-p-Tolylureido)Phenyl)-1,2,4-oxadiazol-5-yl)cyclohexane carboxylic acid], for which the “Percentage inhibition of hDGAT1” value was “+ (20-50% Inhibition)”.

Consider `O=C(Nc1ccc(-c2cnc(CCNS(=O)(=O)C(F)(F)F)s2)cc1)NC1CCCCC1` [Example 528, N-(2-(5-(4-(3-Cyclohexylureido)phenyl)thiazol-2-yl)ethyl)-1,1,1-trifluoro methanesulfonamide], for which the “Percentage inhibition of hDGAT1” value is “++ (>50 % Inhibition)”.

Consider `O=C(Nc1ccc(-c2cnc(CCNS(=O)(=O)C(F)(F)F)s2)cc1)Nc1ccc(C(F)(F)F)cc1` [Example 526], for which the “Percentage inhibition of hDGAT1” value is reported as “++ (>50 % Inhibition)”.

Still in this test, the particulars now being: read-out: Percentage inhibition of hDGAT1.
Turning to `Cc1noc(CC2CCC(c3ncc(-c4ccc(NC(=O)Nc5ccccc5F)cc4)s3)CC2)n1` (stereo not drawn) [Example 391, 1-(2-Fluorophenyl)-3-(4-(2-(4-((3-methyl-1,2,4-oxadiazol-5-yl)methyl)cyclohexyl)thiazol-5-yl)phenyl)urea], the inhibition at 1 µM was more than 50%.

In the case of `O=C(Nc1ccccc1)Nc1ccc(-c2cnc(CNS(=O)(=O)C(F)(F)F)s2)cc1` [Example 550, 1,1,1-Trifluoro-N-((5-(4-(3-phenylureido)phenyl)thiazol-2-yl)methyl)methane sulfonamide], the inhibition at 1 µM was more than 50%.

With `O=C(Nc1ccc(-c2cnc(C34CC5CC(CC(C(=O)O)(C5)C3)C4)s2)cc1)Nc1cc(F)cc(F)c1` [Example 512, 3-(5-(4-(3-(3,5-Difluorophenyl)ureido)phenyl)thiazol-2-yl)adamantane-1-carboxylic acid], the inhibition at 1 µM is more than 50%.

For `O=C(O)CC1CCC(c2ncc(-c3ccc(NC(=O)c4ccc(Cl)cc4Cl)cc3)s2)CC1` (stereo not drawn) [Example 364, 2-(4-(5-(4-(2,4-Dichlorobenzamido)phenyl)thiazol-2-yl)cyclohexyl)acetic acid], the inhibition at 1 µM was more than 50%.

Regarding `CC(C)(CCc1ncc(-c2ccc(NC(=O)NCc3ccccc3)cc2)s1)C(=O)O` [Example 259, 4-(5-(4-(3-Benzylureido)phenyl)thiazol-2-yl)-2,2-dimethylbutanoic acid], the inhibition at 1 µM is more than 50%.

In the case of `Cc1nnc(CC2CCC(c3ncc(-c4ccc(NC(=O)Nc5c(F)cc(F)cc5F)cc4)s3)CC2)o1` (stereo not drawn) [Example 383, 1-(4-(2-(4-((5-Methyl-1,3,4-oxadiazol-2-yl)methyl)cyclohexyl)thiazol-5-yl)phenyl)-3-(2,4,6-trifluorophenyl)urea], the inhibition at 1 µM is more than 50%.

As to `CS(=O)(=O)N1CCC(c2ncc(-c3ccc(NC(=O)Nc4cc(F)c(F)cc4F)cc3)s2)CC1` [Example 494, 1-(4-(2-(1-(Methylsulfonyl)piperidin-4-yl)thiazol-5-yl)phenyl)-3-(2,4,5-trifluorophenyl)urea], the inhibition at 1 µM was more than 50%.

Consider `CC(C)(CCc1ncc(-c2ccc(NC(=O)N3CCC(c4ccccc4)CC3)cc2)s1)C(=O)O` [Example 263, 2,2-Dimethyl-4-(5-(4-(4-phenylpiperidine-1-carboxamido)phenyl)thiazol-2-yl)butanoic acid], for which the inhibition at 1 µM is more than 50%.

For `CC(C)(C)c1ccc(C(=O)Nc2ccc(-c3cnc(CCCC(=O)O)s3)cc2)cc1` [Example 57, 4-(5-(4-(4-Tert-butylbenzamido)phenyl)thiazol-2-yl)butanoic acid], the inhibition at 1 µM fell in the range of 20 to 50%.

`CCCCCc1ccc(C(=O)Nc2ccc(-c3cnc(CCC(=O)O)s3)cc2)cc1` [Example 17, 3-(5-(4-(4-Pentylbenzamido)phenyl)thiazol-2-yl)propanoic acid]: the inhibition at 1 µM was more than 50%.

Turning to `O=C(O)CN1CCC(c2ncc(-c3ccc(NC(=O)Nc4ccccc4F)cc3)s2)CC1` [Example 431, 2-(4-(5-(4-(3-(2-Fluorophenyl)ureido)phenyl)thiazol-2-yl)piperidin-1-yl)acetic acid], the inhibition at 1 µM is more than 50%.

As to `O=C(Nc1ccc(-c2cnc(C3CCC(C(=O)O)CC3)s2)cc1)c1ccccc1Cl` (stereo not drawn) [Example 196, 4-(5-(4-(2-Chlorobenzamido)phenyl)thiazol-2-yl)cyclohexanecarboxylic acid], the inhibition at 1 µM was 20 to 50%.

With `O=C(Nc1ccc(-c2cnc(C3CCC(C(=O)O)CC3)s2)cc1)Nc1ccc(F)cc1F` (stereo not drawn) [Example 138, 4-(5-(4-(3-(2,4-Difluorophenyl)ureido)phenyl)thiazol-2-yl)cyclohexane carboxylic acid], the inhibition at 1 µM was more than 50%.

Consider `O=C(O)CCc1ncc(-c2ccc(NC(=O)c3ccc4ccccc4c3)cc2)s1` [Example 21, 3-(5-(4-(2-Naphthamido)phenyl)thiazol-2-yl)propanoic acid], for which the inhibition at 1 µM was more than 50%.

Regarding `CC(C)(CCc1ncc(-c2ccc(NC(=O)Nc3ccc4c(c3)OCCO4)cc2)s1)C(=O)O` [Example 245, 4-(5-(4-(3-(2,3-Dihydrobenzo[b][1,4]dioxin-6-yl)ureido)phenyl)thiazol-2-yl)-2,2-dimethylbutanoic acid], the inhibition at 1 µM is more than 50%.

With `O=C(Nc1ccc(-c2cnc(C3CCNCC3)s2)cc1)Nc1ccccc1F` [Example 476, 1-(2-Fluorophenyl)-3-(4-(2-(piperidin-4-yl)thiazol-5-yl)phenyl)urea hydrochloride], the inhibition at 1 µM fell in the range of 20 to 50%.

As to `O=C(O)CCCc1nnc(-c2ccc(NC(=O)Nc3cccc(C(F)(F)F)c3)cc2)s1` [Example 278, 4-(5-(4-(3-(3-(Trifluoromethyl)phenyl)ureido)phenyl)-1,3,4-thiadiazol-2-yl)butanoic acid], the inhibition at 1 µM was more than 50%.

`Cc1ccc(F)c(NC(=O)Nc2ccc(-c3cnc(C4CCC(C(=O)O)CC4)s3)cc2)c1` (stereo not drawn) [Example 174, 4-(5-(4-(3-(2-Fluoro-5-methylphenyl)ureido)phenyl)thiazol-2-yl)cyclohexane carboxylic acid]: the inhibition at 1 µM is more than 50%.

For the compound `CC(C)(CCc1ncc(-c2ccc(NC(=O)N3CCCCC3)cc2)s1)C(=O)O` [Example 239, 2,2-Dimethyl-4-(5-(4-(piperidine-1-carboxamido)phenyl)thiazol-2-yl)butanoic acid], the inhibition at 1 µM lay in the range of 20 to 50%.

For the compound `CCCCCc1ccc(C(=O)Nc2ccc(-c3cnc(CCCC(=O)O)s3)cc2)cc1` [Example 59, 4-(5-(4-(4-Pentylbenzamido)phenyl)thiazol-2-yl)butanoic acid], the inhibition at 1 µM is more than 50%.

Turning to `COc1ccc(NC(=O)Nc2ccc(-c3cnc(CC(C)(C)C(=O)O)s3)cc2)cc1` [Example 36, 3-(5-(4-(3-(4-Methoxyphenyl)ureido)phenyl)thiazol-2-yl)-2,2-dimethyl propanoic acid], the inhibition at 1 µM is more than 50%.

For the compound `CC(C)(O)C1CCC(c2ncc(-c3ccc(NC(=O)Nc4cc(F)c(F)cc4F)cc3)s2)CC1` (stereo not drawn) [Example 585, 1-(4-(2-(4-(2-Hydroxypropan-2-yl)cyclohexyl)thiazol-5-yl)phenyl)-3-(2,4,5-trifluorophenyl)urea], the inhibition at 1 µM was more than 50%.

Take `O=C(Nc1ccc(-c2cnc(CNS(=O)(=O)C(F)(F)F)s2)cc1)Nc1ccc(C(F)(F)F)cc1` [Example 549, 1,1,1-Trifluoro-N-((5-(4-(3-(4-(trifluoromethyl)phenyl)ureido)phenyl)thiazol-2-yl)methyl)methanesulfonamide]: the inhibition at 1 µM is more than 50%.

Regarding `CC(C(=O)O)N1CCC(c2ncc(-c3ccc(NC(=O)Nc4ccccc4F)cc3)s2)CC1` (stereo not drawn) [Example 453, 2-(4-(5-(4-(3-(2-Fluorophenyl)ureido)phenyl)thiazol-2-yl)piperidin-1-yl) propanoic acid], the inhibition at 1 µM was more than 50%.

With `O=C(Nc1ccc(-c2cnc(C3CCN(S(=O)(=O)C(F)(F)F)CC3)s2)cc1)Nc1cc(F)c(F)cc1F` [Example 487, 1-(4-(2-(1-((Trifluoromethyl)sulfonyl)piperidin-4-yl)thiazol-5-yl)phenyl)-3-(2,4,5-trifluorophenyl)urea], the inhibition at 1 µM was 20 to 50%.

For `O=C(O)CCc1ncc(-c2ccc(NC(=O)Nc3ccc(Cl)cc3Oc3ccccc3)cc2)s1` [Example 13, 3-(5-(4-(3-(4-Chloro-2-phenoxyphenyl)ureido)phenyl)thiazol-2-yl)propanoic acid], the inhibition at 1 µM is more than 50%.

For the compound `CC(C)(CCc1ncc(-c2ccc(NC(=O)NC3Cc4ccccc4C3)cc2)s1)C(=O)O` [Example 251, 4-(5-(4-(3-(2,3-Dihydro-1H-inden-2-yl)ureido)phenyl)thiazol-2-yl)-2,2-dimethyl butanoic acid], the inhibition at 1 µM is more than 50%.
